Source: paper PMC11026380, “Statine-based peptidomimetic compounds as inhibitors for SARS-CoV-2 main protease (SARS-CoV‑2 Mpro)” (Scientific Reports, 2024)
“Also recorded” adds a separate entry of the source.

What was measured:
[1] = tested on: SARS-CoV-2 B.1 lineage isolate; experiment: microbe, parasite or virus in culture; settings: Severe acute respiratory syndrome coronavirus 2, Calu-3, 24 h
[2] = Cytotoxicity by methylene blue viability assay; settings: human
[3] = tested on: SARS-CoV-2 B.1 lineage isolate; experiment: in vitro; settings: human
SARS-CoV-2 Mpro = SARS-CoV-2 Mpro (Severe acute respiratory syndrome coronavirus 2, UniProt P0DTD1); experiment: biochemical; settings: enzyme 1.5 μM, substrate 50 μM; for IC50 / IC50 (µM): FRET, 15 min preincubation at 37 °C; for Emax: read-out: Maximum inhibition (%), efficacy compared to negative control (vehicle, DMSO)
[4] = tested on: SARS-CoV-2 B.1 lineage isolate
in vitro = settings: human
Calu-3 cells = experiment: Cytotoxicity by methylene blue viability assay; settings: Calu-3 cells
SARS-CoV-2 = settings: comparator values quoted in text; cited from earlier work

`COC(=O)[C@H](Cc1ccccc1)NC(=O)C[C@H](O)[C@H](Cc1ccccc1)NC(=O)OC(C)(C)C` gave a melting point of 79 to 80 °C.
`COC(=O)[C@@H]1CCCN1C(=O)C[C@H](OC(C)=O)[C@H](Cc1ccccc1)NC(=O)OC(C)(C)C` gave a melting point of 90 to 92 °C.
For `COC(=O)N[C@H](C(=O)N[C@@H](Cc1ccccc1)[C@@H](O)CN(Cc1ccc(-c2ccccn2)cc1)NC(=O)[C@@H](NC(=O)OC)C(C)(C)C)C(C)(C)C` [ATV, atazanavir, reference compound], the EC50 [1] was 1.53 ± 0.3 µM, the CC50 at 72 h [2] was greater than 200 µM and the selectivity ratio [3] was greater than 131.
`COC(=O)[C@H](CO)NC(=O)C[C@H](O)[C@H](Cc1ccccc1)NC(=O)OC(C)(C)C` [Compound 7a] gave an IC50 (SARS-CoV-2 Mpro) greater than 1000 µM and an Emax (SARS-CoV-2 Mpro; compounds 0.001 to 1000 μM) of 70%.
With `COC(=O)[C@H](Cc1ccc(O)cc1)NC(=O)C[C@H](O)[C@H](Cc1ccccc1)NC(=O)OC(C)(C)C` [Compound 7b] the IC50 (SARS-CoV-2 Mpro) was greater than 1000 µM, the Emax (SARS-CoV-2 Mpro; compounds 0.001 to 1000 μM) was 70% and the melting point was 60 to 62 °C.
`COC(=O)[C@@H](NC(=O)C[C@H](O)[C@H](Cc1ccccc1)NC(=O)OC(C)(C)C)[C@H](C)O` [Compound 7c] gave an Emax (SARS-CoV-2 Mpro; compounds 0.001 to 1000 μM) of less than 50% and a melting point of 124 to 125 °C.
In the case of `COC(=O)[C@@H](O)CNC(=O)C[C@H](O)[C@H](Cc1ccccc1)NC(=O)OC(C)(C)C` [Compound 7d], the IC50 (SARS-CoV-2 Mpro) is reported as 0.924 µM, the “IC50 (µM)” value (SARS-CoV-2 Mpro) is reported as “sub-micromolar range” and the Emax (SARS-CoV-2 Mpro; compounds 0.001 to 1000 μM) is reported as greater than 70%. The “Inhibition of SARS-CoV-2 replication” value [4] was “roughly 80%”, the EC50 [1] was 1.76 ± 0.3 µM and the CC50 at 72 h (in vitro) was greater than 200 µM. It also gave a melting point of 65 to 66 °C and a selectivity ratio [3] greater than 114.
For `COC(=O)[C@H](CC(C)C)NC(=O)C[C@H](O)[C@H](Cc1ccccc1)NC(=O)OC(C)(C)C` [Compound 7e], the Emax (SARS-CoV-2 Mpro; compounds 0.001 to 1000 μM) was less than 50%.
In the case of `COC(=O)[C@@H](NC(=O)CC(O)C(Cc1ccccc1)NC(=O)OC(C)(C)C)C(C)C` (some centres unmarked) [Compound 7h], the “Maximum inhibition (%)” value (SARS-CoV-2 Mpro; efficacy compared to negative control (vehicle, DMSO), compounds 0.001 to 1000 μM) is reported as less than 50%.
For `COC(=O)[C@H](COC(C)=O)NC(=O)C[C@H](OC(C)=O)[C@H](Cc1ccccc1)NC(=O)OC(C)(C)C` [Compound 8a], the IC50 (SARS-CoV-2 Mpro) was 1000 µM, the Emax (SARS-CoV-2 Mpro; compounds 0.001 to 1000 μM) was 50% and the melting point was 97 to 98 °C.
In the case of `COC(=O)[C@H](Cc1ccc(OC(C)=O)cc1)NC(=O)C[C@H](OC(C)=O)[C@H](Cc1ccccc1)NC(=O)OC(C)(C)C` [Compound 8b], the IC50 (SARS-CoV-2 Mpro) is reported as greater than 1000 µM, the Emax (SARS-CoV-2 Mpro; compounds 0.001 to 1000 μM) is reported as 65% and the melting point is reported as 88 to 89 °C.
Work on `COC(=O)[C@@H](NC(=O)C[C@H](OC(C)=O)[C@H](Cc1ccccc1)NC(=O)OC(C)(C)C)[C@H](C)OC(C)=O` [Compound 8c] yielded an IC50 (SARS-CoV-2 Mpro) of 2.45 µM, an Emax (SARS-CoV-2 Mpro; compounds 0.001 to 1000 μM) of no less than 60% and a melting point of 54 to 55 °C.
In the case of `COC(=O)[C@H](CC(C)C)NC(=O)C[C@H](OC(C)=O)[C@H](Cc1ccccc1)NC(=O)OC(C)(C)C` [Compound 8d], the IC50 (SARS-CoV-2 Mpro) is reported as 0.391 µM, the Emax (SARS-CoV-2 Mpro; compounds 0.001 to 1000 μM) is reported as no less than 60% and the melting point is reported as 94 to 95 °C.
In the case of `COC(=O)[C@H](Cc1ccccc1)NC(=O)C[C@H](OC(C)=O)[C@H](Cc1ccccc1)NC(=O)OC(C)(C)C` [Compound 8e], the IC50 (SARS-CoV-2 Mpro) is reported as 0.606 µM, the “IC50 (µM)” value (SARS-CoV-2 Mpro) is reported as “sub-micromolar range” and the Emax (SARS-CoV-2 Mpro; compounds 0.001 to 1000 μM) is reported as greater than 70%. The “Inhibition of SARS-CoV-2 replication” value [4] was “roughly 80%”, the EC50 [1] was 1.79 ± 0.1 µM and the CC50 at 72 h (in vitro) was greater than 200 µM. For the same compound, the melting point was 89 to 91 °C and the selectivity ratio [3] was greater than 112.
Work on `COC(=O)[C@@H](NC(=O)C[C@H](OC(C)=O)[C@H](Cc1ccccc1)NC(=O)OC(C)(C)C)C(C)C` [Compound 8g] yielded an IC50 (SARS-CoV-2 Mpro) greater than 1000 µM and an Emax (SARS-CoV-2 Mpro; compounds 0.001 to 1000 μM) of 66%.
For `COC(=O)[C@H](CO)NC(=O)C[C@H](O)[C@@H](N)Cc1ccccc1.O=C(O)C(F)(F)F` [Compound 9a], the IC50 (SARS-CoV-2 Mpro) was greater than 1000 µM, the Emax (SARS-CoV-2 Mpro; compounds 0.001 to 1000 μM) was 57% and the melting point was 120 to 121 °C.
Work on `COC(=O)[C@H](Cc1ccc(O)cc1)NC(=O)C[C@H](O)[C@@H](N)Cc1ccccc1.O=C(O)C(F)(F)F` [Compound 9b] yielded an IC50 (SARS-CoV-2 Mpro) greater than 1000 µM, an Emax (SARS-CoV-2 Mpro; compounds 0.001 to 1000 μM) of 52% and a melting point of 98 to 99 °C.
For `COC(=O)[C@H](CC(C)C)NC(=O)C[C@H](O)[C@@H](N)Cc1ccccc1.O=C(O)C(F)(F)F` [Compound 9d], the IC50 (SARS-CoV-2 Mpro) was 778 µM, the Emax (SARS-CoV-2 Mpro; compounds 0.001 to 1000 μM) was 58% and the melting point was 147 to 148 °C.
`COC(=O)[C@H](Cc1ccccc1)NC(=O)C[C@H](O)[C@@H](N)Cc1ccccc1` [Compound 9e] showed an IC50 (SARS-CoV-2 Mpro) greater than 1000 µM and an Emax (SARS-CoV-2 Mpro; compounds 0.001 to 1000 μM) of 51%.
Work on `COC(=O)[C@@H]1CCCN1C(=O)C[C@H](O)[C@@H](N)Cc1ccccc1` [Compound 9f] yielded an IC50 (SARS-CoV-2 Mpro) greater than 1000 µM and an Emax (SARS-CoV-2 Mpro; compounds 0.001 to 1000 μM) of 68%.
For `COC(=O)[C@@H](NC(=O)C[C@H](O)[C@@H](N)Cc1ccccc1)C(C)C.O=C(O)C(F)(F)F` [Compound 9g], the IC50 (SARS-CoV-2 Mpro) was 0.617 µM, the “IC50 (µM)” value (SARS-CoV-2 Mpro) was “sub-micromolar range” and the Emax (SARS-CoV-2 Mpro; compounds 0.001 to 1000 μM) was greater than 70%. The “Inhibition of SARS-CoV-2 replication” value [4] was “roughly 80%”, the EC50 [1] was 1.51 ± 0.2 µM and the CC50 at 72 h [2] was greater than 200 µM. For the same compound, the “Cytotoxicity (in words)” value (Calu-3 cells) was “no cytotoxicity; also recorded: non-cytotoxic” and the selectivity ratio [3] was greater than 132.
With `CC(C)(C)OC(=O)N[C@@H](Cc1ccccc1)[C@@H](O)CC(=O)N[C@@H](Cc1ccccc1)C(=O)NN` [Compound 10] the IC50 (SARS-CoV-2 Mpro) was greater than 1000 µM and the Emax (SARS-CoV-2 Mpro; compounds 0.001 to 1000 μM) was 61%.
In the case of `CC(C)C(=O)OC[C@H]1O[C@@H](n2ccc(NO)nc2=O)[C@H](O)[C@@H]1O` [molnupiravir], the EC50 (SARS-CoV-2) is given as 1.97 µM.
